Nine compounds from PubChem BioAssay AID1259411 (Chemical Carcinogenesis Research Information System (CCRIS), 2018) can be followed below.

This data set has as its system rodent carcinogenicity bioassays, tumor incidence. Nature of the data set: CCRIS carcinogenicity studies. The method, boiled down: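 Archive of carcinogenicity, mutagenicity, tumor promotion and tumor inhibition results drawn from journals, NCI reports and other sources, expert-reviewed; covers 1985-2011 and is no longer updated.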

Structures are written as SMILES. Calls of active or inactive are those of the source. No rule for the calls is given here.

For the compound `O=C1O[C@@H](CN2CCOCC2)CN1N=Cc1ccc([N+](=O)[O-])o1`, the carcinogen call (Species: RAT, Route: ORAL, Tumor Site: Type of Lesion: LYMPHATIC SYSTEM: LYMPHOBLASTIC LYMPHOMA, MAMMARY GLAND) was “active; positive”.

In the case of `COc1ccc(-c2ccccc2)cc1NNC(=O)OC(C)C`, the carcinogen call runs as follows: (Species: Mouse, Strain/Sex: B6C3F1/Female (50/group), Route: Oral, Dose: 0, 10, 100, 175 ppm in diet for 78 wks, Dose: 0, 10, 100, 175 ppm in diet for 78 wks) “inactive; negative; purity 92.5%”; (Species: Rat, Strain/Sex: Sprague-Dawley/Female (60/group), Route: Oral, Dose: 0, 20, 80, 160 ppm in diet for 104 wks, Dose: 0, 20, 80, 160 ppm in diet for 104 wks) “inactive; negative; purity 92.5%”; (Species: Rat, Strain/Sex: Sprague-Dawley/Male (60/group), Route: Oral, Dose: 0, 20, 80, 200 ppm in diet for 104 wks, Dose: 0, 20, 80, 200 ppm in diet for 104 wks) “inactive; negative; purity 92.5%”.

Regarding `O=[N+]([O-])c1cc2ccc3cc4ccccc4c4ccc(c1)c2c34`, under “Species: MOUSE, Strain/Sex: B6C3F1/MALE, Route: INTRAPERITONEAL, Dose: 0, 400 NMOL IN 35 µL DMSO ON DAYS 1 (1/7 TOTAL DOSE), 8 (2/7 TOTAL DOSE), AND 15 (4/7 TOTAL DOSE) AFTER BIRTH (STUDY DUR, Tumor Site: Type of Lesion: LIVER: ADENOMA OR CARCINOMA”, the carcinogen call was “active; positive”.

For `C#CCO`, the carcinogen call by setting is: (Species: Mouse, Strain/Sex: B6C3F1/Female (50/Group), Route: Inhalation, Dose: 0, 8, 16, 32 ppm for 6 hr plus 14 min per d, 5 d per wk for 105 wk (Study duration: 105 wk), Dose: 0, 8, 16, 32 ppm for 6 hr plus 14 min per d, 5 d per wk for 105 wk (Study duration: 105 wk), Tumor Site: Type of Lesion: Respiratory epithelium: Adenoma (0/50; 2/50; 4/50; 6/50)) “active; positive. conclusions of authors: some evidence of carcinogenic activity”; (Species: Mouse, Strain/Sex: B6C3F1/Male (50/Group), Route: Inhalation, Dose: 0, 8, 16, 32 ppm for 6 hr plus 14 min per d, 5 d per wk for 105 wk (Study duration: 105 wk), Dose: 0, 8, 16, 32 ppm for 6 hr plus 14 min per d, 5 d per wk for 105 wk (Study duration: 105 wk), Tumor Site: Type of Lesion: Respiratory epithelium: Adenoma (0/49; 1/50; 4/50; 7/50), Harderian gland (3/50; 10/50; 6/50; 11/50), Tumor Site: Type of Lesion: Respiratory epithelium: Adenoma (0/49; 1/50; 4/50; 7/50), Harderian gland (3/50; 10/50; 6/50; 11/50)) “active; positive. conclusions of authors: some evidence of carcinogenic activity based o”; (Species: Rat, Strain/Sex: F344/N / Female (50/Group), Route: Inhalation, Dose: 0, 16, 32, 64 ppm for 6 hr plus 14 min per d, 5 d per wk for 105 wk (Study duration: 105 wk), Dose: 0, 16, 32, 64 ppm for 6 hr plus 14 min per d, 5 d per wk for 105 wk (Study duration: 105 wk), Tumor Site: Type of Lesion: None) “inactive; negative. conclusions of authors: no evidence of carcinogenic activity”; (Species: Rat, Strain/Sex: F344/N / Male (50/Group), Route: Inhalation, Dose: 0, 16, 32, 64 ppm for 6 hr plus 14 min per d, 5 d per wk for 105 wk (Study duration: 105 wk), Dose: 0, 16, 32, 64 ppm for 6 hr plus 14 min per d, 5 d per wk for 105 wk (Study duration: 105 wk), Tumor Site: Type of Lesion: Respiratory epithelium: Adenoma (0/49; 0/49; 0/50; 3/49)) “inactive; negative (although incidence at highest dose exceeded historical controls). con”.

For `CCC(C)[C@H]1O[C@]2(CC[C@@H]1C)CC1C[C@@H](C/C=C(\C)[C@@H](O[C@H]3C[C@H](OC)[C@@H](OC4C[C@H](OC)[C@@H](O)[C@H](C)O4)[C@H](C)O3)[C@@H](C)/C=C/C=C3\CO[C@@H]4[C@H](O)C(C)=C[C@@H](C(=O)O1)[C@]34O)O2` (stereo partly drawn) (tested in a mixture with another compound), the carcinogen call (Species: RAT, Strain/Sex: WISTAR/MALE, Route: ORAL, Dose: 0, 2 PPM IN DIET FOR DURATION OF STUDY (STUDY DURATION: 1 YR)) was “inactive; negative”.

For the compound `CC(=O)N1C(C)CN(N=O)CC1C` (stereo not drawn), the carcinogen call (Species: RAT, Strain/Sex: F344/FEMALE, Route: ORAL, Dose: 0, 130 MG/L IN DRINKING WATER 5 D/WK FOR 30 WK, STUDY DURATION: 30-40 WK, Dose: 0, 130 MG/L IN DRINKING WATER 5 D/WK FOR 30 WK, STUDY DURATION: 30-40 WK, Tumor Site: Type of Lesion: ESOPHAGUS: CARCINOMA, TONGUE: PAPILLOMA OR CARCINOMA) is “active; positive”.

In the case of `O=S(=O)(O)c1cc(S(=O)(=O)O)c2c(N=Nc3ccc(S(=O)(=O)O)c4ccccc34)c(O)ccc2c1`, the carcinogen call is “inactive; negative” (Species: RAT, Strain/Sex: WISTAR/FEMALE, Route: ORAL, Dose: 0, 50, 500, 1250 MG/KG/D IN DIET TO PUPS OF PARENTS GIVEN THE SAME DIETARY DOSE LEVELS FOR 60 D PRIOR TO MATING (STUDY D, Dose: 0, 50, 500, 1250 MG/KG/D IN DIET TO PUPS OF PARENTS GIVEN THE SAME DIETARY DOSE LEVELS FOR 60 D PRIOR TO MATING (STUDY D) and “inactive; negative” (Species: RAT, Strain/Sex: WISTAR/MALE, Route: ORAL, Dose: 0, 50, 500, 1250 MG/KG/D IN DIET TO PUPS OF PARENTS GIVEN THE SAME DIETARY DOSE LEVELS FOR 60 D PRIOR TO MATING (STUDY D, Dose: 0, 50, 500, 1250 MG/KG/D IN DIET TO PUPS OF PARENTS GIVEN THE SAME DIETARY DOSE LEVELS FOR 60 D PRIOR TO MATING (STUDY D).

For the compound `OCC(Br)CBr` (stereo not drawn), the carcinogen call was “active; positive” (Species: MOUSE, Strain/Sex: B6C3F1/FEMALE, Route: DERMAL, Dose: 0, 188, 375 MG/KG IN ETHANOL APPLIED TO SUBSCAPULAR SKIN 5 D/WK FOR 39-42 WK (STUDY DURATION: 42 WK), Dose: 0, 188, 375 MG/KG IN ETHANOL APPLIED TO SUBSCAPULAR SKIN 5 D/WK FOR 39-42 WK (STUDY DURATION: 42 WK), Tumor Site: Type of Lesion: SKIN: SQUAMOUS CELL PAPILLOMA, FORESTOMACH: SQUAMOUS CELL PAPILLOMA, SQUAMOUS CELL CARCINOMA); “active; positive” (Species: MOUSE, Strain/Sex: B6C3F1/MALE, Route: DERMAL, Dose: 0, 188, 375 MG/KG IN ETHANOL APPLIED TO SUBSCAPULAR SKIN 5 D/WK FOR 36-39 WK (STUDY DURATION: 42 WK), Dose: 0, 188, 375 MG/KG IN ETHANOL APPLIED TO SUBSCAPULAR SKIN 5 D/WK FOR 36-39 WK (STUDY DURATION: 42 WK), Tumor Site: Type of Lesion: SKIN: SQUAMOUS CELL PAPILLOMA, FORESTOMACH: SQUAMOUS CELL PAPILLOMA, LUNG: ALVEOLAR/BRONCHIOLAR ADENOMA, LIVER: HEPATOCE, Tumor Site: Type of Lesion: SKIN: SQUAMOUS CELL PAPILLOMA, FORESTOMACH: SQUAMOUS CELL PAPILLOMA, LUNG: ALVEOLAR/BRONCHIOLAR ADENOMA, LIVER: HEPATOCE); “active; positive” (Species: RAT, Strain/Sex: F344/FEMALE, Route: DERMAL, Dose: 0, 188, 375 MG/KG IN ETHANOL APPLIED TO SUBSCAPULAR SKIN 5 D/WK FOR 52-55 WK (STUDY DURATION: 56 WK), Dose: 0, 188, 375 MG/KG IN ETHANOL APPLIED TO SUBSCAPULAR SKIN 5 D/WK FOR 52-55 WK (STUDY DURATION: 56 WK), Tumor Site: Type of Lesion: SKIN: SQUAMOUS CELL PAPILLOMA OR CARCINOMA, BASAL CELL TUMOR, KERATOACANTHOMA, ORAL MUCOSA: SQUAMOUS CELL PAPILLOMA, SQU); “active; positive” (Species: RAT, Strain/Sex: F344/MALE, Route: DERMAL, Dose: 0, 188, 375 MG/KG IN ETHANOL APPLIED TO SUBSCAPULAR SKIN 5 D/WK FOR 48-51 WK (STUDY DURATION: 56 WK), Dose: 0, 188, 375 MG/KG IN ETHANOL APPLIED TO SUBSCAPULAR SKIN 5 D/WK FOR 48-51 WK (STUDY DURATION: 56 WK), Tumor Site: Type of Lesion: SKIN: SQUAMOUS CELL PAPILLOMA OR CARCINOMA, BASAL CELL TUMOR, SEBACEOUS ADENOMA, KERATOACANTHOMA, ORAL MUCOSA: SQUAMOUS).

Turning to `CCN(CC(F)(F)F)N=O`, the carcinogen call (Species: RAT, Strain/Sex: SPRAGUE-DAWLEY/MALE, Route: GAVAGE, Dose: 7.5, 15, 30, 60 MG/KG IN VEGETABLE OIL 2/WK, Dose: 7.5, 15, 30, 60 MG/KG IN VEGETABLE OIL 2/WK, Tumor Site: Type of Lesion: ESOPHAGUS: CARCINOMA, NASAL CAVITY: SQUAMOUS CELL CARCINOMA) was “active; positive”.
